Reference: publication PMC7072451, “Membrane Binding of Neuronal Calcium Sensor-1: Highly Specific Interaction with Phosphatidylinositol-3-Phosphate” (Biomolecules, 2020)

Molecular target: T1, myristoylated NCS-1 (NCS-1^WT) (Homo sapiens, UniProt P62166)
T1 construct: gene NCS1; full-length, N-myristoylated by co-expressed yeast NMT in E. coli (pET22b+), sulfo-cyanine-3 maleimide labelled; unlabelled protein used as titrant
Experiment: fluorescence correlation spectroscopy, titration of PI liposomes with unlabelled protein
Type: binding
Conditions: Ca2+ present (1 mM CaCl2), pH 8.0, 100 mM NaCl; multilamellar liposomes of brain PI; concentration is of the protein; highly cooperative; sulfo-cyanine-3 labelled protein; read-out: dissociation constant

T1 sequence (P62166 2-190): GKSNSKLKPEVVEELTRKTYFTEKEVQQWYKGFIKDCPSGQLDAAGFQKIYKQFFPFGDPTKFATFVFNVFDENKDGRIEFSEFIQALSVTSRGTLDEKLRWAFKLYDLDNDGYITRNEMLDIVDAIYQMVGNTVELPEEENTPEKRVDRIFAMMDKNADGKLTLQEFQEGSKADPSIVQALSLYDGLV

Substance: phosphatidylinositol
- Kd: 3000 nM
